The structures appear in SMILES notation.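 All cell lines were grown in 96-well plates and treated with compound for 48 hours. Abbreviation: GI50, concentration required for 50% inhibition of growth.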 Activity calls are given as the source filed them. Rule as the data show it: active = GI50 up to about 1.1 µM and inactive = higher.

The values that follow come from ChEMBL document CHEMBL1201862, “PubChem BioAssay data set” (2004).

Some test systems named below: NCI-H23; SF-539; HOP-62; SF-268; COLO 205; EKVX; PC-3; HCT-15; SK-MEL-5; IGROV-1; SN12C; SNB-19; SF-295; UO-31; OVCAR-3; SW-620; SK-MEL-28; OVCAR-5; K562; TK-10.
Holding throughout (experiment): NCI anticancer screen, dose series, 48 h

As to `COc1nc(Cl)nc(N[C@H](C)c2c3ccccc3cc3ccccc23)n1`, the GI50 in the test with NCI-H23 is 16.9 µM (inactive); in the test with SF-539 it was 17.8 µM (inactive); with HOP-62, 14.9 µM (inactive); in the test with SF-268, 18 µM (inactive); with COLO 205 it was 14.4 µM (inactive); with EKVX, 16.1 µM (inactive). In addition, the GI50 in the test on PC-3 was 14.9 µM (inactive); in the test on HCT-15, 13.3 µM; in the test on SK-MEL-5, 5.38 µM (inactive); with IGROV-1, 6.75 µM (inactive); with SN12C, 0.879 µM (active); in the test on SNB-19, 16.3 µM (inactive). Moreover, the GI50 in the test on SF-295 is 15.6 µM (inactive); in the test with UO-31, 16.9 µM (inactive); in the test on OVCAR-3, 11.1 µM (inactive); in the test on SW-620, 15.2 µM (inactive); in the test on SK-MEL-28 it was 2.3 µM (inactive); with OVCAR-5 it was 17.3 µM (inactive). The GI50 is 8.49 µM (inactive) in the test on K562 and 0.807 µM (active) with TK-10.
